Data reported in US12247064B2, “Modified ligand-gated ion channels and methods of use” (Howard Hughes Medical Institute, priority 2017, dated 2025).
Like-named read-outs stand apart in the source and are kept apart here.

Assays:
α7-GlyR [1] = target: T1, α7-GlyR (Homo sapiens, UniProt P36544)
α7-5HT3 [2] = target: T2, α7-5HT3 (Homo sapiens, UniProt P36544, M226I/T225I)
[3] = tested on: mice expressing PSAM^4-GlyR unilaterally in SNr; experiment: Unilateral SNr silencing rotation assay; format: in vivo, mouse; conditions: SNr silencing rotation assay in mice
α4β2 nAChR = α4β2 nAChR (Homo sapiens, UniProt P17787+P43681); experiment: Agonist potency at α4β2 nAChR
5HT3-R = target: T3, 5HT3-R (Homo sapiens, UniProt P46098); experiment: Agonist potency at 5HT3-R; format: cell-based
T3 sequence (P46098 24-478): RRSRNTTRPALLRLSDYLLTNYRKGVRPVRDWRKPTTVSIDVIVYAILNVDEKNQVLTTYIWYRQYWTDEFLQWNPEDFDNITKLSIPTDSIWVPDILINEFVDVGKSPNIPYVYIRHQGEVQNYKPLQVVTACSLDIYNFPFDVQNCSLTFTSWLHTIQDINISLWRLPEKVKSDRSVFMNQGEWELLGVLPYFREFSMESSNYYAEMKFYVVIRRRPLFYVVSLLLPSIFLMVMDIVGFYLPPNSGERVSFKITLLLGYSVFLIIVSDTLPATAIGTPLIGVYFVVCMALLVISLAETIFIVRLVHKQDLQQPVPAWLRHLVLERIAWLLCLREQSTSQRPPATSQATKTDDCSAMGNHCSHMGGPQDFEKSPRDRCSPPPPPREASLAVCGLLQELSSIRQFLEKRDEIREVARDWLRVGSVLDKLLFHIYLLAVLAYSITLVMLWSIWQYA

α7-GlyR [4] = target: T1, α7-GlyR; experiment: cell-based
α7-5HT3 [5] = target: T2, α7-5HT3; remark: listed apart in the source
α7GlyR G175K = target: T4, α7GlyR G175K (Homo sapiens, UniProt P36544, G175K); experiment: Agonist potency at chimeric channel; format: cell-based
T4 construct: expressed in transfected cells

α7GlyR P216I = target: T5, α7GlyR P216I (Homo sapiens, UniProt P36544, P216I); experiment: Agonist potency at chimeric channel; format: cell-based
T5 construct: expressed in transfected cells

[6] = read-out: α7-5HT3 EC50, HEK cells, Table 3

T2 sequence (P36544 with tags, fused parts or gaps T225I/M226I limits assumed): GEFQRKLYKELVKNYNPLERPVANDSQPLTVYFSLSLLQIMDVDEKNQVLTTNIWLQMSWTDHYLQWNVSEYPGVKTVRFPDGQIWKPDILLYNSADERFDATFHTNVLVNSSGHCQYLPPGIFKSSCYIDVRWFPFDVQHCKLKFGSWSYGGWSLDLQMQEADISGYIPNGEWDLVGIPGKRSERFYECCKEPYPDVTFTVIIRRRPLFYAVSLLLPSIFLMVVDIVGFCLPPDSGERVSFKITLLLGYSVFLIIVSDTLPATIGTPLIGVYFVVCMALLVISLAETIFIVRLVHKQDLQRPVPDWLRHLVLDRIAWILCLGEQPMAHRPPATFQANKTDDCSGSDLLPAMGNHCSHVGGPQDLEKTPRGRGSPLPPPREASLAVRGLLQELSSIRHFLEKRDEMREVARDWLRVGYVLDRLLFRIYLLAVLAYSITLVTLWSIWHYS
Sequence of α4β2 nAChR (P43681 29-627 limits assumed): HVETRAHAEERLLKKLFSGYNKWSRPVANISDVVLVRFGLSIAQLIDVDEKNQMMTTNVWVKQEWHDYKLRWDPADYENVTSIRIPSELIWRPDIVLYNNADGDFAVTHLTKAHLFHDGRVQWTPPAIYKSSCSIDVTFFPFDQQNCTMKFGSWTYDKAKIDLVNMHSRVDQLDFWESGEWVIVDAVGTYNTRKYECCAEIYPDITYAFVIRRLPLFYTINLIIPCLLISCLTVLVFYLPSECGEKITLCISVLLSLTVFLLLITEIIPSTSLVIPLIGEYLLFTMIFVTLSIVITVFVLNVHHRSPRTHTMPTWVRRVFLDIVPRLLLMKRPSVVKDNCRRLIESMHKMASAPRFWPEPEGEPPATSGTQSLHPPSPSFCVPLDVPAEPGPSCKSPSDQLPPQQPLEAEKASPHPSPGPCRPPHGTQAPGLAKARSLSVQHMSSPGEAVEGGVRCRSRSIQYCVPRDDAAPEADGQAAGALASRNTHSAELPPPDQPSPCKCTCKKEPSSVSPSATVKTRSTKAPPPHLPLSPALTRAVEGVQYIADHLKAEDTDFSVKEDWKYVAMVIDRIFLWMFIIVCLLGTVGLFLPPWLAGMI
Sequence of α4β2 nAChR (P17787 26-502): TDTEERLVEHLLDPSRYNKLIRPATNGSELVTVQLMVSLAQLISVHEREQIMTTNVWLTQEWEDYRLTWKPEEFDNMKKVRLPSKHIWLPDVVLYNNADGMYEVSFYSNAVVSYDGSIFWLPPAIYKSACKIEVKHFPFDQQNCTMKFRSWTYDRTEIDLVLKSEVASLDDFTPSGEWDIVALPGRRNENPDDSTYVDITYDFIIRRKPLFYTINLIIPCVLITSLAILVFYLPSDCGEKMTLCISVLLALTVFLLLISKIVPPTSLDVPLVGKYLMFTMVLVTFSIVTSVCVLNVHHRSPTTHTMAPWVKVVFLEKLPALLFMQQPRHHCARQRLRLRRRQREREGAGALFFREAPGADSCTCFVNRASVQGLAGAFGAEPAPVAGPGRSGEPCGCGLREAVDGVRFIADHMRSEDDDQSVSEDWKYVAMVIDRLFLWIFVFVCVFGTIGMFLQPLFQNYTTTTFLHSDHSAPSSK
T1 sequence (P36544 with tags, fused parts or gaps): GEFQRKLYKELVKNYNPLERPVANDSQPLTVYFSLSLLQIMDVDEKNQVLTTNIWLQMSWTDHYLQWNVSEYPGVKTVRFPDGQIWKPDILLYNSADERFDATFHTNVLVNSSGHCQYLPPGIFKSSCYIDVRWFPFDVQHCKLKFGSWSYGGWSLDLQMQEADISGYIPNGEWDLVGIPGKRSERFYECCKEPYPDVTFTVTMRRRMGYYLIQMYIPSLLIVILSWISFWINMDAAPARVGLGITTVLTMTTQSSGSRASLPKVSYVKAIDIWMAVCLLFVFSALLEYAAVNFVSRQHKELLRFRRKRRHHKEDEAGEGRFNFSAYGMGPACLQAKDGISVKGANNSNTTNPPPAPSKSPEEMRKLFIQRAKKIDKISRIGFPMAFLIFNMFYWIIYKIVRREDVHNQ
T4 sequence (P36544 with tags, fused parts or gaps G175K): as the sequence (P36544 with tags, fused parts or gaps) above, with G153K counted along it
T5 sequence (P36544 with tags, fused parts or gaps P216I): as the sequence (P36544 with tags, fused parts or gaps) above, with P194I counted along it

Work on `O=C(NC1C2CCN(CC2)C1Cc1cccnc1)c1ccc(C(F)(F)F)cc1` (mixture of isomers) [compound 0436] yielded an EC50 (α7-GlyR [1]) of 0.31 µM and an EC50 (α7-5HT3 [2]; [6]) of 0.84 µM.

For `CCOc1cnc2cc3c(cc2n1)C1CNCC3C1` (stereo not shown) [compound 815], the In vivo potency [3] was 0.1 mpk, the EC50 (α7-GlyR [1]) was > 100 µM and the “α4β2 nAChR agonism” value (α4β2 nAChR) was “do not show evident α4β2 nAChR agonism”. For the same compound, the EC50 (α4β2 nAChR; read-out: EC50MP) was > 30 µM and the EC50 (α7-5HT3 [2]; read-out: EC50MP) was > 100 µM.

With `c1cc(-c2cnc3cc4c(cc3n2)C2CNCC4C2)ccn1` (stereo not shown) [compound 805] the EC50 (5HT3-R; […], 5HT3-R, Table 10) was 1 µM, the EC50 (α7-GlyR [4]) was > 30 µM and the EC50 (α4β2 nAChR; […]) was 4.9 µM.

For `O=C(N[C@@H]1CN2CCC1CC2)c1ccc(C(F)(F)F)cn1` [compound 0295], the EC50 (α7-GlyR [1]) was > 100 µM and the EC50 (α7-5HT3 [2]; [6]) was > 100 µM.

With `Cc1nc2cc3c(cc2nc1-n1cncn1)C1CNCC3C1` (stereo not shown) [compound 808] the EC50 (5HT3-R; 5HT3-R, Table 10) was 12.5 µM, the EC50 (5HT3-R; read-out: potency for 5HT3-R) was > 1 µM and the EC50 (α7-5HT3 [5]) was > 30 µM. The EC50 (α7-GlyR [4]) was > 30 µM, the EC50 (α4β2 nAChR; […], α4β2 nAChR, Table 10) was > 30 µM and the EC50 (α4β2 nAChR; potency for α4β2 nAChR) was > 10 µM.

With `Cc1nc2cc3c(cc2nc1Cn1cncn1)C1CNCC3C1` (stereo not shown) [compound 807] the EC50 (5HT3-R; 5HT3-R, Table 10) was 0.57 µM, the EC50 (α7-5HT3 [5]) was > 30 µM and the EC50 (α7-GlyR [4]) was > 30 µM. The EC50 (α4β2 nAChR; […], α4β2 nAChR, Table 10) was > 30 µM.

For `COc1nc2cc3c(cc2nc1C)C1CNCC3C1` (stereo not shown) [compound 791], the EC50 (5HT3-R; 5HT3-R, Table 10) was 0.17 µM, the EC50 (α7-GlyR [4]) was > 30 µM and the EC50 (α4β2 nAChR; […], α4β2 nAChR, Table 10) was > 30 µM.

For `Cc1nc2cc3c(cc2[nH]c1=O)C1CNCC3C1` (stereo not shown) [compound 783], the EC50 (5HT3-R; 5HT3-R, Table 10) was 0.43 µM, the EC50 (α7-GlyR [4]) was > 100 µM and the EC50 (α4β2 nAChR; […]) was 43 µM.

`c1cncc(-c2cnc3cc4c(cc3n2)C2CNCC4C2)c1` (stereo not shown) [compound 804] was tested, and the EC50 (5HT3-R; […], 5HT3-R, Table 10) was 2 µM, the EC50 (α7-GlyR [4]) was > 30 µM and the EC50 (α4β2 nAChR; […]) was 4.8 µM.

In the case of `Cc1ccccc1-c1cnc2cc3c(cc2n1)C1CNCC3C1` (stereo not shown) [compound 780], the EC50 (α7-5HT3 [5]) is reported as 10.6 µM and the EC50 (α7-GlyR [4]) is reported as > 100 µM.

For `c1cn(-c2cnc3cc4c(cc3n2)C2CNCC4C2)cn1` (stereo not shown) [compound 800], the EC50 (5HT3-R; 5HT3-R, Table 10) was 3.5 µM, the EC50 (α7-GlyR [4]) was > 30 µM and the EC50 (α4β2 nAChR; […], α4β2 nAChR, Table 10) was 13.9 µM.

`CN1CCCC1c1cccnc1` (stereo not shown) [Nicotine] was tested, and the increased potency (α7GlyR G175K) was 10 fold and the increased potency (α7GlyR P216I) was > 4 fold.

`c1c2c(cc3nc4c(nc13)CCCC4)C1CNCC2C1` [compound 785] was tested, and the EC50 (5HT3-R; 5HT3-R, Table 10) was 10.2 µM and the EC50 (α7-GlyR [4]) was > 100 µM.

In the case of `Cc1nc2cc3c(cc2nc1N(C)C)C1CNCC3C1` (stereo not shown) [compound 794], the EC50 (5HT3-R; 5HT3-R, Table 10) is reported as 1.7 µM, the EC50 (α7-GlyR [4]) is reported as > 30 µM and the EC50 (α4β2 nAChR; […], α4β2 nAChR, Table 10) is reported as > 30 µM.

`Cc1nc2cc3c(cc2nc1Cn1cccn1)C1CNCC3C1` (stereo not shown) [compound 812] was tested, and the EC50 (5HT3-R; 5HT3-R, Table 10) was 11 µM, the EC50 (α7-5HT3 [5]) was > 100 µM and the EC50 (α7-GlyR [4]) was > 100 µM. The EC50 (α4β2 nAChR; […], α4β2 nAChR, Table 10) was > 100 µM.

`COc1ccc(OC)c(C(=O)NC2C3CCN(CC3)C2Cc2cccnc2)c1` (mixture of isomers) [compound 0434] was tested, and the EC50 (α7-GlyR [1]) was > 10 µM and the EC50 (α7-5HT3 [2]; [6]) was > 10 µM.

With `c1ncn(-c2cnc3cc4c(cc3n2)C2CNCC4C2)n1` (stereo not shown) [compound 801] the EC50 (5HT3-R; 5HT3-R, Table 10) was 4.4 µM, the EC50 (α7-GlyR [4]) was > 30 µM and the EC50 (α4β2 nAChR; […], α4β2 nAChR, Table 10) was 26 µM.

With `O=c1[nH]c2cc3c(cc2nc1-c1ccccc1)C1CNCC3C1` (stereo not shown) [compound 784] the EC50 (5HT3-R; 5HT3-R, Table 10) was 6.2 µM, the EC50 (α7-5HT3 [5]) was > 30 µM and the EC50 (α7-GlyR [4]) was > 30 µM.

In the case of `Cc1ccccc1-c1cnc2cc3c(cc2n1)C1CC3CN(C)C1` (stereo not shown) [compound 782], the EC50 (5HT3-R; 5HT3-R, Table 10) is reported as > 30 µM, the EC50 (α7-5HT3 [5]) is reported as > 100 µM and the EC50 (α7-GlyR [4]) is reported as > 100 µM.
